Data reported in ChEMBL document CHEMBL1156195, “Antimicrobial selaginellin derivatives from Selaginella pulvinata” (Bioorg Med Chem Lett, 2010).
In brackets after ≈: the same amount, converted by molar mass. Activity calls are given as the source filed them. The calls are words filed in the database; no cut-off is given here.

Legend:
[1] = test system: Staphylococcus aureus; assay: Antibacterial activity against Staphylococcus aureus; assay type: functional, organism-based
[2] = test system: Candida albicans; assay: Antifungal activity against Candida albicans; assay type: functional, organism-based

Row | IC50 [1] | MIC [1] | Compound | IC50 [2] [µg/mL]
1 | Not Active | inactive | CCOc1ccc(C(=C2C=CC(=O)C=C2)c2c(-c3ccc(O)cc3)ccc(CO)c2C#Cc2ccc(O)cc2)cc1 [SELAGINELLIN D] | 5.3 (≈ 9.8 µM)
2 | – | – | Clc1ccc(COC(Cn2ccnc2)c2ccc(Cl)cc2Cl)c(Cl)c1.O=[N+]([O-])O (centres undefined) [MICONAZOLE NITRATE] | < 1.2
